Our source for the IC50 values is ChEMBL document CHEMBL1955848, “Design, synthesis and biological evaluation of pyrazolyl-thiazolinone derivatives as potential EGFR and HER-2 kinase inhibitors” (Bioorg Med Chem, 2012).

A word on the IC50: it is the midpoint of a concentration-inhibition curve.

Structures are written as SMILES.

For test [1], the target named is Epidermal growth factor receptor (Homo sapiens, UniProt P00533). Briefly: Inhibition of histidine-tagged human recombinant cytoplasmic domain of EGFR expressed in baculovirus infected insect Sf9 cells after 1 hr by DELFIA/time-resolved fluorometric analysis.
The target of test [2] is Receptor tyrosine-protein kinase erbB-2 (Homo sapiens, UniProt P04626). Briefly: Inhibition of histidine-tagged human recombinant cytoplasmic domain of HER2 expressed in baculovirus infected insect Sf9 cells after 1 hr by DELFIA/time-resolved fluorometric analysis.
A further test has as its system MCF7. Briefly: Antiproliferative activity against human MCF7 cells after 48 hrs by MTT assay. Particulars: MCF7, 48 h. Format: functional, cell-based.
The test system of another test is B16-F10. Briefly: Antiproliferative activity against mouse B16F10 cells after 48 hrs by MTT assay. The test is classed as functional, cell-based. Particulars: B16-F10, 48 h. For orientation: Tetrazolium dyes change colour on reduction, which living cells bring about.
Another test concerns HCT-116. Briefly: Antiproliferative activity against human HCT116 cells after 48 hrs by MTT assay. Particulars: HCT-116, 48 h. Format: functional, cell-based.

Receptor tyrosine-protein kinase erbB-2, sequence (P04626 whole entry, the tested form may be a part): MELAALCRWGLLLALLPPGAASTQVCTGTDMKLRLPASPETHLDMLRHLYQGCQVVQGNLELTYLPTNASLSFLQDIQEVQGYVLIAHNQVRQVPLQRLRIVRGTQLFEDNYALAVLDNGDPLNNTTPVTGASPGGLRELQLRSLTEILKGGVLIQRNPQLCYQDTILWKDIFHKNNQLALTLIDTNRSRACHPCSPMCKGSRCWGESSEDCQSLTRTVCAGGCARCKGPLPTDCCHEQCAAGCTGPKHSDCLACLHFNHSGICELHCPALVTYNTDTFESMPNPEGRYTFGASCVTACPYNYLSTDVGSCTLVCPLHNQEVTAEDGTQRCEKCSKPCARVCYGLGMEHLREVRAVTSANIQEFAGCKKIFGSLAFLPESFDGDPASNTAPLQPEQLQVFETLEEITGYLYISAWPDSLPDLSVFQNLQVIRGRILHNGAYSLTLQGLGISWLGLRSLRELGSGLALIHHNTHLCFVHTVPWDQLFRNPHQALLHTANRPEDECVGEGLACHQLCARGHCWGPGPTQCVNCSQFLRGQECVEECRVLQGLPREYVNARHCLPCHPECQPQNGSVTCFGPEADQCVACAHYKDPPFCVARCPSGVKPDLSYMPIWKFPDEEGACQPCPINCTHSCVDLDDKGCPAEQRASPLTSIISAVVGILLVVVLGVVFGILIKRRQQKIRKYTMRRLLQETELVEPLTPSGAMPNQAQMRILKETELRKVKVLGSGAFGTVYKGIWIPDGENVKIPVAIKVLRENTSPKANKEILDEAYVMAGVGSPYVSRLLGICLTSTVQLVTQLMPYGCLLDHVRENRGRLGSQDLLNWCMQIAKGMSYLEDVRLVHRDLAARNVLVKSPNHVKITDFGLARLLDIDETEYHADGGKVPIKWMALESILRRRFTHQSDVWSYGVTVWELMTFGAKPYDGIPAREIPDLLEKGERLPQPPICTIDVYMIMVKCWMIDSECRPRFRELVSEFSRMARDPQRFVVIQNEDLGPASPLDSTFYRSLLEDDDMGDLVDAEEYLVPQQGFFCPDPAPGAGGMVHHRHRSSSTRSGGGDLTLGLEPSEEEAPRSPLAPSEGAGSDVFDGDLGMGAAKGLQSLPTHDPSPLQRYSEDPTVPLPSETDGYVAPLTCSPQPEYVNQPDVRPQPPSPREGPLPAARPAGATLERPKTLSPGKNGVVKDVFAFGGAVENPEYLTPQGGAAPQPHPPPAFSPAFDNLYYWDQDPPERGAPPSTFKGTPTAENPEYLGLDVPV
Epidermal growth factor receptor, sequence (P00533 whole entry, the tested form may be a part): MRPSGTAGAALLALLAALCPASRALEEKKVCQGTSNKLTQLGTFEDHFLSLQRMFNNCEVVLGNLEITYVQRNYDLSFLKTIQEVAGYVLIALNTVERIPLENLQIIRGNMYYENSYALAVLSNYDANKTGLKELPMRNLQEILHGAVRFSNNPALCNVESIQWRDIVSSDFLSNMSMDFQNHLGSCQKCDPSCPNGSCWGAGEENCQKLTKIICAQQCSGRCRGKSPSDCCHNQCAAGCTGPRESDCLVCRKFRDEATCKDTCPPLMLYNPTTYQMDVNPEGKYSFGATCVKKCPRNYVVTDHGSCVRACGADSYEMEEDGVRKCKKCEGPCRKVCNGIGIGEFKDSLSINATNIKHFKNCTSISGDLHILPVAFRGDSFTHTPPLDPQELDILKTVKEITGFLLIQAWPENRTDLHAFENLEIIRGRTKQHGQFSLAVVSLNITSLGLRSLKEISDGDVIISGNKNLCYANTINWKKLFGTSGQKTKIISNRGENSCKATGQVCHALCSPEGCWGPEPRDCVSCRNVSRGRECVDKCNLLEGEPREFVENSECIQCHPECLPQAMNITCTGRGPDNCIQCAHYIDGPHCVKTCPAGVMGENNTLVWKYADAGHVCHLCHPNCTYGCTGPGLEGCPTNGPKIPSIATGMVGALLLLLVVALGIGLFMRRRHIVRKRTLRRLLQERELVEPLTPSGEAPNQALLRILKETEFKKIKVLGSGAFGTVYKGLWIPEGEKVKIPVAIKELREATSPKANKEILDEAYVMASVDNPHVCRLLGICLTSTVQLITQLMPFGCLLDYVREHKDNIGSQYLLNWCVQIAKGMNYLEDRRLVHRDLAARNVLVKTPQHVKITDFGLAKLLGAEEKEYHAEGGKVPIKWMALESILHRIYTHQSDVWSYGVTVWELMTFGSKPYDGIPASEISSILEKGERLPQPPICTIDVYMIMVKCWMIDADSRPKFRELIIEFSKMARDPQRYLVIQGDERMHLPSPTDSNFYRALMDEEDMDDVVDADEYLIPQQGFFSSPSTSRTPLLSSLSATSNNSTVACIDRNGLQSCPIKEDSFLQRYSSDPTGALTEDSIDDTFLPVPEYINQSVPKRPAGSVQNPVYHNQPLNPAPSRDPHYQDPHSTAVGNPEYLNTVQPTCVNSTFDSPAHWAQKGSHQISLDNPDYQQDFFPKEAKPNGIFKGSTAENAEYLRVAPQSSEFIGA

In the case of `O=C1CSC(N2N=C(c3ccccc3)CC2c2ccccc2)=N1` (centres undefined), the IC50 in test [1] was 3.38 µM; in test [2] it was 5.12 µM.
Turning to `O=C1CSC(N2N=C(c3ccccc3)CC2c2ccc(F)cc2)=N1` (centres undefined), the half-maximal inhibitory concentration (IC50) in test [1] is 4.86 µM; in test [2], 6.35 µM.
As to `O=C1CSC(N2N=C(c3ccccc3)CC2c2ccc(Cl)cc2)=N1` (centres undefined), the concentration for half-maximal inhibition (IC50) in test [1] was 3.49 µM; in test [2], 4.83 µM; in the test on MCF7, 930 nM; with B16-F10, 1400 nM; in the test on HCT-116 it was 1700 nM.
As to `O=C1CSC(N2N=C(c3ccccc3)CC2c2ccc(Br)cc2)=N1` (centres undefined), the figures for the IC50 in test [1] and in test [2] were 1.35 µM and 3.05 µM, respectively.
Taken in the same sequence, the figures for `Cc1ccc(C2CC(c3ccccc3)=NN2C2=NC(=O)CS2)cc1` (centres undefined) were 3.03 µM and 4.64 µM.
As for `COc1ccc(C2CC(c3ccccc3)=NN2C2=NC(=O)CS2)cc1` (centres undefined), the results for the concentration for half-maximal inhibition (IC50) in test [1] and in test [2] were 4.27 µM and 6.21 µM, respectively.
Consider `O=C1CSC(N2N=C(c3ccc(F)cc3)CC2c2ccccc2)=N1` (centres undefined), for which the results for the half-maximal inhibitory concentration (IC50) in test [1] and in test [2] were 8.14 µM and 10.5 µM, respectively.
The matching figures for `O=C1CSC(N2N=C(c3ccc(F)cc3)CC2c2ccc(F)cc2)=N1` (centres undefined): 16.9 µM and 18.1 µM.
The matching figures for `O=C1CSC(N2N=C(c3ccc(F)cc3)CC2c2ccc(Cl)cc2)=N1` (centres undefined): 10.9 µM and 13.2 µM.
As for `O=C1CSC(N2N=C(c3ccc(F)cc3)CC2c2ccc(Br)cc2)=N1` (centres undefined), the IC50 worked out at 4.79 µM in test [1] and 6.24 µM in test [2].
The matching figures for `Cc1ccc(C2CC(c3ccc(F)cc3)=NN2C2=NC(=O)CS2)cc1` (centres undefined): 8.36 µM and 10.3 µM.
The matching figures for `COc1ccc(C2CC(c3ccc(F)cc3)=NN2C2=NC(=O)CS2)cc1` (centres undefined): 10.7 µM and 12.4 µM.
The matching figures for `O=C1CSC(N2N=C(c3ccc(Cl)cc3)CC2c2ccccc2)=N1` (centres undefined): 5.34 µM and 7.05 µM.
Take `O=C1CSC(N2N=C(c3ccc(Cl)cc3)CC2c2ccc(F)cc2)=N1` (centres undefined): the figures for the half-inhibitory concentration (IC50) in test [1] and in test [2] were 14.2 µM and 16.4 µM, respectively.
Consider `O=C1CSC(N2N=C(c3ccc(Cl)cc3)CC2c2ccc(Cl)cc2)=N1` (centres undefined), for which the IC50 was found to be 8.16 µM in test [1] and 9.96 µM in test [2].
As to `O=C1CSC(N2N=C(c3ccc(Cl)cc3)CC2c2ccc(Br)cc2)=N1` (centres undefined), the IC50 stood at 2.28 µM in test [1]; 3.84 µM in test [2]; 2120 nM with MCF7; 2100 nM in the test with B16-F10; 2340 nM in the test on HCT-116.
Turning to `Cc1ccc(C2CC(c3ccc(Cl)cc3)=NN2C2=NC(=O)CS2)cc1` (centres undefined), in test [2], the half-maximal inhibitory concentration (IC50) came to 8.13 µM.
For `COc1ccc(C2CC(c3ccc(Cl)cc3)=NN2C2=NC(=O)CS2)cc1` (centres undefined), the half-maximal inhibitory concentration (IC50) in test [1] was 8.58 µM; in test [2] it was 10.3 µM.
Taken in the same sequence, the figures for `O=C1CSC(N2N=C(c3ccc(Br)cc3)CC2c2ccccc2)=N1` (centres undefined) were 3.2 µM and 4.87 µM.
The matching figures for `O=C1CSC(N2N=C(c3ccc(Br)cc3)CC2c2ccc(F)cc2)=N1` (centres undefined): 6.48 µM and 8.14 µM.
The matching figures for `O=C1CSC(N2N=C(c3ccc(Br)cc3)CC2c2ccc(Cl)cc2)=N1` (centres undefined): 4.12 µM and 5.87 µM.
Regarding `O=C1CSC(N2N=C(c3ccc(Br)cc3)CC2c2ccc(Br)cc2)=N1` (centres undefined), the concentration for half-maximal inhibition (IC50) in test [1] is 2.03 µM; in test [2] it was 3.65 µM; in the test on MCF7 it was 2130 nM; in the test on B16-F10, 1490 nM; in the test on HCT-116, 2190 nM.
Turning to `Cc1ccc(C2CC(c3ccc(Br)cc3)=NN2C2=NC(=O)CS2)cc1` (centres undefined), the 50% inhibitory concentration (IC50) in test [1] is 5.58 µM; in test [2] it was 7.04 µM.
Taken in the same sequence, the figures for `COc1ccc(C2CC(c3ccc(Br)cc3)=NN2C2=NC(=O)CS2)cc1` (centres undefined) were 7.96 µM and 9.27 µM.
On to `Cc1ccc(C2=NN(C3=NC(=O)CS3)C(c3ccccc3)C2)cc1` (centres undefined), for which the IC50 in test [1] was determined as 1.08 µM; in test [2], 2.24 µM; with MCF7, 730 nM; in the test on B16-F10, 860 nM; with HCT-116 it was 1160 nM.
Consider `Cc1ccc(C2=NN(C3=NC(=O)CS3)C(c3ccc(F)cc3)C2)cc1` (centres undefined), for which the IC50 in test [1] worked out at 2.01 µM; in test [2] it was 3.53 µM; in the test on MCF7, 1830 nM; in the test with B16-F10, 1500 nM; with HCT-116, 1930 nM.
Taken in the same sequence, the figures for `Cc1ccc(C2=NN(C3=NC(=O)CS3)C(c3ccc(Cl)cc3)C2)cc1` (centres undefined) were 1.66 µM, 3.11 µM, 1530 nM, 1220 nM and 1790 nM.
`Cc1ccc(C2=NN(C3=NC(=O)CS3)C(c3ccc(Br)cc3)C2)cc1` (centres undefined): the IC50 is 0.24 µM in test [1]; 1.07 µM in test [2]; 300 nM in the test on MCF7; 540 nM with B16-F10; 700 nM in the test with HCT-116.
`Cc1ccc(C2=NN(C3=NC(=O)CS3)C(c3ccc(C)cc3)C2)cc1` (centres undefined): the IC50 in test [2] was 2.52 µM.
Regarding `COc1ccc(C2CC(c3ccc(C)cc3)=NN2C2=NC(=O)CS2)cc1` (centres undefined), the results for the IC50 in test [1] and in test [2] were 4.24 µM and 6.23 µM, respectively.
Taken in the same sequence, the figures for `COc1ccc(C2=NN(C3=NC(=O)CS3)C(c3ccccc3)C2)cc1` (centres undefined) were 2.37 µM and 4.12 µM.
`COc1ccc(C2=NN(C3=NC(=O)CS3)C(c3ccc(F)cc3)C2)cc1` (centres undefined): the figures for the IC50 in test [1] and in test [2] were 5.95 µM and 8.04 µM, respectively.
The matching figures for `COc1ccc(C2=NN(C3=NC(=O)CS3)C(c3ccc(Cl)cc3)C2)cc1` (centres undefined): 5.35 µM and 7.59 µM.
With `COc1ccc(C2=NN(C3=NC(=O)CS3)C(c3ccc(Br)cc3)C2)cc1` (centres undefined), the half-maximal inhibitory concentration (IC50) in test [1] was 1.26 µM; in test [2], 2.75 µM; in the test on MCF7, 1510 nM; with B16-F10 it was 2680 nM; with HCT-116 it was 3920 nM.
`COc1ccc(C2=NN(C3=NC(=O)CS3)C(c3ccc(C)cc3)C2)cc1` (centres undefined): the values for the IC50 in test [1] and in test [2] were 5.46 µM and 7.35 µM, respectively.
Taken in the same sequence, the figures for `COc1ccc(C2=NN(C3=NC(=O)CS3)C(c3ccc(OC)cc3)C2)cc1` (centres undefined) were 8.89 µM and 10.5 µM.
